These results are taken from PMC9737972, “Dual LSD1 and HDAC6 Inhibition Induces Doxorubicin Sensitivity in Acute Myeloid Leukemia Cells” (Cancers, 2022).

Each structure is given as a SMILES string.

The subject of experiment [1] is MOLM-13. Nature of the experiment: Combination treatment with doxorubicin, MOLM-13 cell viability. The note with it: iDual 0.5 μM, iHDAC6 0.5 μM, GSK2879552 1.25 μM, ricolinostat […], 72 h then + doxorubicin 2 nM 48 h. In kind it is cell-based.
Another experiment concerns Jurkat. Nature of the experiment: Cell Titer-Glo cell viability, Jurkat. The settings on record: Homo sapiens, 120 h, ± standard deviation, three biological repeats, read-out: IC50 cell viability Jurkat. In kind it is cell-based. On the technique in general: In ATP-based viability assays light output follows the ATP content of the culture.
The test system of the next experiment is THP-1. Nature of the experiment: Cell Titer-Glo cell viability, THP-1. Type of experiment: cell-based. The note with it: Homo sapiens, THP-1; 120 h, ± standard deviation, three biological repeats; read-out: IC50 cell viability THP-1.
Experiment [2] concerns THP-1 cells. In words: RT-qPCR gene expression in THP-1 cells. Type of experiment: cell-based. The settings on record: for p21 mRNA expression: THP-1 cells, 1 μM, 24 h. On the procedure: NucleoSpin™ RNA Plus Isolation Kit (Macherey Nagel™, Dueren, Germany, 740955.50) and M-MLV Reverse Transcriptase kit (Thermo Fisher Scientific, Waltham, MA, USA, #28025013) protocols were employed for RNA isolation and cDNA synthesis, respectively, with 500 ng of RNA converted to cDNA for each sample. Gene expression levels were quantified with qRT–PCR method using a LightCycler 480 SYBR Green I Master (Roche Diagnostics, Penzberg, Germany, #50-720-3180) and normalized to β-actin or GAPDH. Briefly, 10 ng of cDNA template was amplified using 10 μL LightCycler 480 SYBR Green I Master (Roche Diagnostics), and gene-specific primers (Table S1) mixed in a final volume of 20 μL. The samples were incubated at 95 °C for 5 minutes, followed by 40 cycles of 95 °C for 10 seconds, 55 °C for 30 seconds, and 72 °C for 1 second. The relative amounts of gene expressions were calculated with the 2^(−ΔΔCT) method. All analyses were performed in duplicates and three biological replicas.
Figure 4 Assessment of biological activity through changes in methylation or acetylation and cell differentiation (A–C). Colored graphs illustrate epidrug targets and visualize expected outcomes upon target inhibition. Blue cylinders represent histone octomers (A,B) and green tubes represent microtubules (C). […] Histone methylation, histone acetylation, and α-tubulin acetylation levels were quantified from Western blot band intensities (Figure S18). Full Western blot images can be found in Figure S30. (D,E) Expression levels of mRNA were measured by RT-qPCR analysis and were normalized to two housekeeping genes, β-actin and GAPDH, for p21 and CD11b and CD86. […] Relative expression was determined with the 2(^−ΔΔCT) method, and the data are represented as the average ± standard error of the mean of two biological repeats with technical duplicates. (* p < 0.05, ** p < 0.01 student t-test). Illustrations were generated in BioRender.com.

The subject of experiment [3] is MOLM-13. In words: Cell Titer-Glo cell viability, MOLM-13. Type of experiment: cell-based. The note with it: Homo sapiens, MOLM-13; 120 h, ± standard deviation, three biological repeats; read-out: IC50 cell viability MOLM-13.
In another experiment the target is LSD1 (Homo sapiens, UniProt O60341). Nature of the experiment: LSD1 MALDI-TOF enzyme assay. Type of experiment: biochemical. The settings on record: ± standard error, three independent measurements. Also noted: made in house.
In a further experiment the test system is K-562. Nature of the experiment: Cell Titer-Glo cell viability, K-562. In kind it is cell-based. The note with it: Homo sapiens, K562; 120 h, ± standard deviation, three biological repeats; read-out: IC50 cell viability K-562.
A further experiment deals with MDA-MB-231. In words: Wound healing assay, MDA-MB-231. Type of experiment: cell-based. The settings on record: 4 μM, 72 h, 1% FBS. On the procedure: Figure S20. Wound healing assay with iDual and ricolinostat. (A) MDA-MB-231 and (B) DU-145 […]
and ricolinostat for 72 h cells grown in relative medium with (1%) FBS conditions. Wound healing is photographed with Nikon Eclipse TS 100 microscope. Wound/healed area is quantified using Image […]

Experiment [4] concerns THP-1 cells. In words: Annexin V/7-AAD staining (flow cytometry). Type of experiment: cell-based. The settings on record: sublethal concentration (5 μM). On the procedure: Treated cells were centrifuged at 300× g for 5 min, and the pellet was resuspended with 1% FBS in PBS (5 × 10^5 cells/mL). Annexin V dye (Merck Millipore, Burlington, MA, USA, MCH100105) was mixed with the cell suspension in a 1:1 ratio and the mixture incubated at RT for 20 min.
Background: In flow cytometry, cells or beads pass a laser one at a time.

In experiment [5] the test system is LSD1 and HDAC substrates in THP-1 cells. Nature of the experiment: Western blot of methylation and acetylation levels of LSD1 and HDAC substrates. In kind it is cell-based. The note with it: 4 μM. (In general: A western blot detects proteins with antibodies after separation by electrophoresis.)

As for `O=C(NO)c1ccc(CN2CCC(CNC3(c4ccccc4)CC3)CC2)cc1` [iHDAC6], the “cell viability after priming with compound and co-treatment with doxorubicin 2 nM” value in the experiment on MOLM-13 [1] is “relatively ineffective”. Moreover, the IC50 in the experiment with Jurkat is 10.7 ± 0.8 µM; in the experiment on THP-1 it was 9.7 ± 2.4 µM; in the experiment on MOLM-13 [3], 6.7 ± 1.6 µM; against LSD1 it was above 100 µM; in the experiment on K-562, 17.6 ± 1.6 µM. For the same compound, the “p21 mRNA expression” value in the experiment on THP-1 cells [2] is on record as “increased”.
Regarding `O=C(NO)c1ccc(CN2CCC(CN[C@@H]3C[C@H]3c3ccccc3)CC2)cc1` (relative stereo) [iDual], the “cell viability after priming with compound and co-treatment with doxorubicin 2 nM” value in the experiment with MOLM-13 [1] is “greatest decrease”. The 50% inhibitory concentration (IC50) was found to be 15.5 ± 1.4 µM with Jurkat, 16.3 ± 5.4 µM in the experiment with THP-1, 1.3 ± 0.4 µM with MOLM-13 [3] and 16.6 ± 2.7 µM with K-562. The “wound healing capacity MDA-MB-231” value with MDA-MB-231 is listed as “slowed down”. Moreover, the “apoptosis by annexin V/7-AAD staining, compound alone” value with THP-1 cells [4] was “did not induce apoptosis”. The “levels of the histone substrate H3K4me2” value in [5] (24 h) was “increase”. Moreover, the “nuclear histone H3 acetylation (H3K18ac and H3K27ac levels), change vs DMSO” value in [5] (24 h (ricolinostat 0.75 μM or 4 μM)) is “two-fold”. For the same compound, the ATM expression increase result in the experiment with THP-1 cells [2] (THP-1, 5 μM, 72 h) is “~ two-fold”. Moreover, the ATR expression increase entry in the experiment on THP-1 cells [2] (THP-1, 5 μM, 72 h) is “~ two-fold”. Moreover, the “expression of a panel of ABC transporters” value in the experiment with THP-1 cells [2] (THP-1, 5 μM, 72 h) was “no decrease”. The “expression of doxorubicin sensitizer genes (AGPAT9, ALOX5, BTG1, HIPK2, IFI44L, LRP1)” value in the experiment on THP-1 cells [2] (THP-1, 5 μM, 72 h, all targets of Table 3 except Wnt7B) is on record as “upregulated”. Besides, the Rad51 expression increase result with THP-1 cells [2] (THP-1, 5 μM, 72 h, p ≤ 0.001) is “three-fold”. Besides, the “p21 mRNA expression” value in the experiment with THP-1 cells [2] is “increased”.

The term IC50 denotes the point on the concentration scale where inhibition reaches its midpoint.
